Experimental data: patent publication US20110218143A1, “COMPOSITIONS AND METHODS FOR TISSUE REPAIR” (UNIVERSITY OF FLORIDA RESEARCH FOUNDATION, priority 2007, published 2011)
Entries after “also recorded” stand apart in the source; their conditions may differ.

Experiments:
NOD mice = test: Blood glucose / diabetes incidence in NOD mouse model; type: in vivo
Description: The NOD mouse is recognized as a model for human Type1 diabetes (Anderson and Bluestone, “THE NOD MOUSE: A Model of Immune Dysregulation” Annual Review of Immunology 23: 447-485, 2005, which is incorporated by reference in its entirety). Celastrol was administered to the mice at the rate of 3.0 mg/kg body weight via intra-peritoneal injection once a week in NOD mice starting from 4 weeks of age. When mice attained 11 weeks of age, the compound was administered at the rate of 3.3 mg/kg body weight via oral gavage three times a week up to 30 weeks of age. Blood glucose levels were measured at the time of celastrol administration once a week from 4-10 weeks and three times a week from 11-30 weeks. Mice in control group were treated with placebo.

[1] = system: irradiated wild type mice, C57BL/6; test: Secondary adaptive transfer of bone marrow cells into irradiated wild type mice; type: in vivo, C57BL/6 mice; conditions: bone marrow cells from celastrol treated primary adaptive transfer group, 1.5×10^6 cells per mouse; at 7 weeks; control group died within 10 days
Text: Wild type mice that survived the primary transfer were used for secondary transfer. Bone marrow cells obtained from these mice were collected and transferred into irradiated wild type mice, C57BL/6 at 1.5×10^6 cells per mouse.

NOD-scid mice = test: Adaptive transfer of splenocytes into NOD-scid mice; type: in vivo; conditions: splenocytes from celastrol treated NOD mice, 5.3×10^6 cells per mouse via tail vein; at 68 day
Text: NOD mice were sacrificed and splenocytes collected from celastrol-treated healthy mice and mice that became diabetic recently were adaptively transferred at 5.3×10^6 cells per mouse into NOD-scid mice (mice free from immune system) via tail vein injection. Blood glucose levels of the mice were monitored starting from 4 weeks after the adaptive transfer was made. All mice (n=4) that received splenocytes from diabetic mice became diabetic between 31-38 days (FIG. 17, Kaplan-Meier graph). In contrast, mice (12/12) that received splenocytes from celastrol treated mice were free of diabetes (hyperglycemic condition) at 68 day (FIG. 17).

[2] = system: cytokine production in mouse blood; test: Cytokine/chemokine levels in blood serum (Millipore 21-Plex, Luminex); type: in vivo, C57BL6/J mice
Description: Mice received either a placebo, celastrol (3.0 mg/kg), or 17-AAG (10 mg/kg) by intraperitoneal injection. Blood samples were taken from all groups of mice at 0, 1, 3, 6, 24, 48, and 72 hours after administration of the placebo, celastrol, or 17-AAG. The blood samples were analyzed for cytokine production, including the production of granulocyte-macrophage colony-stimulating factor (GM-CSF), interferon-gamma (IFN-γ), interleukin-10 (IL-10), interleukin-12 subunit beta (IL-12p40), interleukin-12 heterodimer (IL-12p70), interleukin-12 homodimer (IL-12p80), vascular endothelial growth factor (VEGF), tumor necrosis factor-alpha (TNF-α), keratinocyte derived chemokine (KC), RANTES (Regulated upon Activation, Normal T-cell Expressed, and Secreted; CCL5), monocyte chemotactic protein-1 (MCP 1), macrophage inflammatory protein (MIP1β; CCL4), interleukin-4 (IL-4), interleukin-3 (IL-3), interleukin-2 (IL-2), interleukin-1 beta (IL-1β), interleukin-1 alpha (IL-1α), interleukin-9 (IL-9), interleukin-13 (IL-13), interleukin-17 (IL-17), interleukin-6 (IL-6), and interleukin-5 (IL-5). Blood serum was analyzed using a commercially available kit (e.g., Mouse cytokine/chemokine panel: 21-Plex; Millipore). Blood serum (50 μl) was assayed in duplicate using a commercially available cytokine/chemokine detection kit from Millipore following the protocol given with the product information. The final measurement was performed using a commercially available detector (e.g., computer-operated Luminex 100 IS system) and the results were expressed as pg/ml blood serum sample. Levels of cytokines in blood were quantitated as a concentration of the total volume of the sample.

[3] = system: mice with STZ induced diabetes; test: Blood glucose in streptozotocin (STZ) induced diabetes model; type: in vivo, C57BL6/J mice; conditions: STZ 50 mg/kg i.p.; celastrol 2.5 mg/kg by injection from day -2, three times per week; monitored 30 days
Description: The administration of streptozotocin to induce pancreatic cell death is a well-known model of diabetes, see for example, Like and Rossini, “Streptozotocin-induced pancreatic insulitis: new model of diabetes mellitus.” Science. Jul. 30, 1976; 193(4251):415-7. Fasting C57BL6/J mice received 50 mg/kg streptozotocin (STZ) by intraperitoneal injection at day 0. Two days prior to (−2 day) and concurrently with STZ injection half of the mice also received celastrol by injection (2.5 mg/kg). Celastrol injections continued three times per week throughout the experiment. Blood glucose levels were monitored for 30 days after treatment (FIG. 9). […] In mice, normoglycemia is typically less than 200 mg/dL blood glucose.

[4] = system: stem cell populations in bone marrow (cd34+, cd45+, Sca-1+ cells); test: FACS of cells expressing stem cell markers CD34, CD45, Sca-1 in bone marrow samples; type: in vivo, C57BL6/J mice
Description: Mice received either a placebo (PBS) or oridonin (3.0 mg/kg) by intraperitoneal injection.

[5] = system: mice with ALF induced by TAA; test: Survival in TAA induced acute liver failure; type: in vivo, C57BL6/J mice; conditions: TAA 1000 mg/kg and celastrol 3 mg/kg i.p.; examined 3 days or longer; TAA alone 100% mortality
Description: Thiomacetamide (TAA) was administered to C57BL6/J mice to induce liver damage. Groups of at least 6 C57BL6/J mice received either TAA (1000 mg/kg) and a placebo, TAA (1000 mg/kg) and celastrol (3 mg/kg), or placebo only by intraperitoneal injection. Mice were examined for 3 days or longer to determine survival (FIG. 12).

[6] = celastrol 3.0 mg/kg i.p., over the course of the experiment
[7] = celastrol 3.0 mg/kg i.p., throughout the 72 hour time course
[8] = i.p. celastrol 3.0 mg/kg or 17-AAG 10 mg/kg, 72 hour time course
[9] = i.p. celastrol 3.0 mg/kg or 17-AAG 10 mg/kg, sampled 0-72 h
[10] = i.p. celastrol 3.0 mg/kg or 17-AAG 10 mg/kg, sampled 0-72 h, vs placebo control
[11] = celastrol 2.5 mg/kg i.p., 24 hours post treatment

For `CC1=C(O)C(=O)C=C2C1=CC=C1[C@@]2(C)CC[C@@]2(C)[C@@H]3C[C@](C)(C(=O)O)CC[C@]3(C)CC[C@]12C` [celastrol], the “mice that became hyperglycemic (more than 250 mg/dL)” value (NOD mice; celastrol 3.0 mg/kg i.p. once a week from 4 weeks, 3.3 mg/kg oral gavage three times a week from 11 to 30 weeks of age, at 23 weeks of age) was “twenty”, the “mice euglycemic or normoglycemic (less than 250 mg/dL)” value (NOD mice; same regimen, up to 30 weeks of age) was “Eighty” and the “mice still surviving secondary transfer” value [1] was 85.7%. The “recipient mice free of diabetes (hyperglycemic condition)” value (NOD-scid mice) was 12/12, the “level of GM-CSF compared to placebo control” value ([2]; celastrol 3.0 mg/kg i.p., 72 hour time course) was “elevated again between 24 and 48 hours; also recorded: elevated again 6 to 48 hours” and the “level of IL-9 compared to placebo control” value ([2]; celastrol 3.0 mg/kg i.p., after peak) was “remained slightly elevated up to 72 hours”. The “level of IL-6 compared to placebo control” value [2, 6] was “not significantly different”, the “level of RANTES compared to placebo control” value [2, 6] was “not significantly different” and the “level of IL-2 compared to placebo control” value [2, 7] was “slightly elevated”. For the same compound, the “level of VEGF compared to placebo control” value [2, 7] was “slightly elevated”, the “level of IL-1α compared to placebo control” value ([2]; celastrol 3.0 mg/kg i.p., throughout the experiment) was “slightly decreased” and the “level of IL-13 compared to placebo control” value ([2]; celastrol 3.0 mg/kg i.p., up to 48 hours post treatment, risen again by 72 hours) was “slightly elevated”. The “level of IL-17 compared to placebo control” value ([2]; i.p. celastrol 3.0 mg/kg (throughout 72 hours) or 17-AAG 10 mg/kg (up to 48 hours)) was “slightly elevated”, the “level of IFN-γ compared to placebo control” value [2, 8] was “slightly elevated” and the “level of IL-5 compared to placebo control” value [2, 8] was “not significantly different”. For the same compound, the “level of IL-12p40 compared to placebo control” value [2, 8] was “slightly elevated”, the “time by which GM-CSF (elevated pre treatment) declined to placebo control levels” value [2, 9] was no more than 6 h and the “time by which IL-3 (slightly elevated pre treatment) declined to placebo control levels” value [2, 9] was no more than 1 h. The “time by which IL-4 (slightly elevated pre treatment) declined to placebo control levels” value [2, 9] was no more than 1 h, the “time by which MIP1β returned or declined to placebo control levels” value [2, 9] was no more than 6 h and the “time by which TNF-α (elevated pre treatment) declined to placebo control levels” value [2, 9] was no more than 6 h. For the same compound, the “time of peak level of IL-9 post treatment” value [2, 10] was “around 3 hours”, the “time of peak level of KC post treatment” value [2, 10] was “around 6 hours” and the “blood glucose levels in STZ mice relative to STZ mice injected with saline placebo” value [3] was “substantially lower; also recorded: normoglycemia”. The “cd34+ cells, percent of the population of bone marrow cells” value [4, 11] was 0.2%, the “fold increase of percentage of cd34+ cells in bone marrow over control” value [4, 11] was roughly 4 fold and the “fold increase of percentage of cd45+ cells in bone marrow vs untreated control” value [4, 11] was “about 2 fold”. The “fold increase of percentage of cd34+ cells in bone marrow over control” value ([4]; celastrol 2.5 mg/kg i.p., 48 hours) was roughly 2 fold, the “increase in CD45 population in bone marrow” value ([4]; celastrol 2.5 mg/kg i.p., 48 hours post treatment, undetectable in placebo mice) was “still detectable” and the “fold increase in the proportion of Sca-1+ stem cells in bone marrow vs untreated mice” value ([4]; celastrol 2.5 mg/kg i.p., by 48 hours) was roughly 3 fold. For the same compound, the “fold increase in the proportion of Sca-1+ stem cells in bone marrow vs untreated mice” value ([4]; celastrol 2.5 mg/kg i.p., time not printed (before 48 hours)) was “approximately 4 fold”, the “increase in cd34+, cd45+ and sca-1+ cells compared with GM-CSF” value ([4]; doses not given) was “exceeded that observed using GM-CSF” and the survival [5] was 71.4%.
